Patent US5218125A, “Antihypertensive compound and method of use thereas” (Merck & Co., Inc., priority 1992, dated 1993)

Target: T1, Angiotensin II (A II) receptor (Oryctolagus cuniculus, UniProt P34976)
T1 construct: 125I-Sar1,Ile8-angiotensin II displacement
T1 sequence (P34976 1-359): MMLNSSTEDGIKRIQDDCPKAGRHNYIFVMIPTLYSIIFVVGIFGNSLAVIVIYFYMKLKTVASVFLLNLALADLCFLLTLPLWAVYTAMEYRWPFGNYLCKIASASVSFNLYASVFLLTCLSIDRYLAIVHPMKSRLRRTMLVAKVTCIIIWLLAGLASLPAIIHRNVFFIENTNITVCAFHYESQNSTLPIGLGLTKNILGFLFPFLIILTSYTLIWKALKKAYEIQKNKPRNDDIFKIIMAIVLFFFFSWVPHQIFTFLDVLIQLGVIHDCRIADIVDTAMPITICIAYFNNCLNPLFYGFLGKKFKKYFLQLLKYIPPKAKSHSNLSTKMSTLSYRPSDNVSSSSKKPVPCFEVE
Assay: Receptor binding assay using rabbit aortae membrane preparation (125I-Sar1 Ile8-angiotensin II displacement, "IC50" assay)
Method: This assay is also referred to herein as the "IC50 " assay.
RECEPTOR BINDING ASSAY USING RABBIT AORTAE MEMBRANE PREPARATION
Three frozen rabbit aortae (obtained from Pel-Freeze Biologicals) were suspended in 5 mM Tris-0.25M Sucrose, pH 7.4 buffer (50 mL) homogenized, and then centrifuged. The mixture was filtered through a cheesecloth and the supernatant was centrifuged for 30 minutes at 20,000 rpm at 4° C. The pellet thus obtained was resuspended in 30 ml of 50 mM Tris-5 mM MgCl2 buffer containing 0.2% Bovine Serum Albumin and 0.2 mg/mL Bacitratin and the suspension was used for 100 assay tubes. Samples tested for screening were done in duplicate. To the membrane preparation (0.25 mL) there was added ^125 I-Sar^1 Ile^8 -angiotensin II [obtained from New England Nuclear] (10 uL; 20,000 cpm) with or without the test sample and the mixture was incubated at 37° C. for 90 minutes. The mixture was then diluted with ice-cold 50 mM Tris-0.9% NaCl, pH 7.4 (4 mL) and filtered through a glass fiber filter (GF/B Whatman 2.4" diameter). The filter was soaked in scintillation cocktail (10 mL) and counted for radioactivity using Packard 2660 Tricarb liquid scintillation counter. […]

CCCC(O)c1nc(Cl)c(CO)n1Cc1ccc(-c2ccccc2-c2nn[nH]n2)cc1 (stereo not shown) [Compound (I)]
A II antagonist activity by the IC50 assay: exhibits A II antagonist activity
